In brackets after ≈: the same amount, converted by molar mass. Each block holds one compound with its values, some of them ahead of it.
Legend:
[1] = tested on: Shigella sp.; test: in vitro antibiotic activity by the Gradient Plate method, Shigella; assay type: cell-based; conditions: read-out: Minimum Inhibitory Concentration vs. Shigella sp.
Procedure: (§1) The antibiotic activity for these compounds is illustrated by the activity data in the following Table II. In the Table, the compounds designated by the groups R, R1 and R2 have reference to the following formula I [drawing 35] and the in vitro activity was determined by the Gradient Plate method.

[2] = tested on: Escherichia coli; test: in vitro antibiotic activity by the Gradient Plate method, E. coli; assay type: cell-based; conditions: read-out: Minimum Inhibitory Concentration vs. Escherichia coli
Procedure: as §1

[3] = tested on: Klebsiella pneumoniae; test: in vitro antibiotic activity by the Gradient Plate method, Klebsiella; assay type: cell-based; conditions: read-out: Minimum Inhibitory Concentration vs. Klebsiella pneumoniae
Procedure: as §1

[4] = tested on: Enterobacter aerogenes; test: in vitro antibiotic activity by the Gradient Plate method, Enterobacter; assay type: cell-based; conditions: Klebsiella aerogenes, read-out: Minimum Inhibitory Concentration vs. Enterobacter aerogenes
Procedure: as §1

[5] = tested on: Salmonella heidelberg; test: in vitro antibiotic activity by the Gradient Plate method, Salmonella; assay type: cell-based; conditions: Salmonella enterica, read-out: Minimum Inhibitory Concentration vs. Salmonella heidelberg
Procedure: as §1

[6] = tested on: Pseudomonas aeruginosa; test: in vitro antibiotic activity by the Gradient Plate method, Pseudomonas; assay type: cell-based; conditions: read-out: Minimum Inhibitory Concentration vs. Pseudomonas aeruginosa
Procedure: as §1

[7] = tested on: Serratia marcescens; test: in vitro antibiotic activity by the Gradient Plate method, Serratia; assay type: cell-based; conditions: read-out: Minimum Inhibitory Concentration vs. Serratia marcescens
Procedure: as §1

[8] = Titration 66 percent DMF; assay type: physicochemical; conditions: 66% dmf
Excerpt: IR (KBr): 1770 cm^-1 (β-lactam carbonyl) U.V. (methanol): γ max 278 (ε17,921) Titration 66 percent DMF: pKa 4.98.

Compound: CS(=O)(=O)N1CCN(C(=O)NC(C(=O)NC2C(=O)N3C(C(=O)O)=C(COC(N)=O)CSC23)c2ccc(O)cc2)C1=O (stereo not drawn)
MIC [1]: 4.3 µg/mL (≈ 7.02 µM) | MIC [2]: 10 µg/mL (≈ 16.3 µM) | MIC [3]: 5.5 µg/mL (≈ 8.98 µM) | MIC [4]: 10 µg/mL (≈ 16.3 µM) | MIC [5]: 4.8 µg/mL (≈ 7.84 µM) | MIC [6]: 47.5 µg/mL (≈ 77.5 µM) | MIC [7]: 100 µg/mL (≈ 163 µM)

Compound: CNC(=O)OCC1=C(C(=O)O)N2C(=O)C(NC(=O)C(NC(=O)N(C)C(=O)NC)c3ccccc3)C2SC1 (stereo not drawn) [7-[α-(3-Methylcarbamoyl-3-methyl-1-ureido)-α-phenylacetamido]-3-N-methylcarbamoyloxymethyl-3-cephem-4-carboxylic acid]
MIC [1]: 5.5 µg/mL (≈ 10.3 µM) | MIC [2]: 15.5 µg/mL (≈ 29 µM) | MIC [3]: 7 µg/mL (≈ 13.1 µM) | MIC [4]: 19.5 µg/mL (≈ 36.5 µM) | MIC [5]: 8.5 µg/mL (≈ 15.9 µM) | MIC [6]: 30 µg/mL (≈ 56.1 µM) | MIC [7]: 42.5 µg/mL (≈ 79.5 µM)

Compound: CNC(=O)N(C)C(=O)NC(C(=O)NC1C(=O)N2C(C(=O)O)=C(COC(N)=O)CSC12)c1ccc(O)cc1 (stereo not drawn)
MIC [1]: 4.5 µg/mL (≈ 8.39 µM) | MIC [2]: 10 µg/mL (≈ 18.6 µM) | MIC [3]: 10 µg/mL (≈ 18.6 µM) | MIC [4]: 5.5 µg/mL (≈ 10.3 µM) | MIC [5]: 5 µg/mL (≈ 9.32 µM) | MIC [6]: 13.5 µg/mL (≈ 25.2 µM) | MIC [7]: 160 µg/mL (≈ 298 µM)

Compound: CN(C(=O)C=Cc1ccccc1)C(=O)NC(C(=O)NC1C(=O)N2C(C(=O)O)=C(COC(N)=O)CSC12)c1ccccc1 (stereo not drawn)
MIC [1]: 1 µg/mL (≈ 1.68 µM) | MIC [2]: 5.5 µg/mL (≈ 9.27 µM) | MIC [3]: 0.3 µg/mL (≈ 0.505 µM) | MIC [4]: 8 µg/mL (≈ 13.5 µM) | MIC [5]: 6.5 µg/mL (≈ 10.9 µM) | MIC [6]: 21.8 µg/mL (≈ 36.7 µM) | MIC [7]: 8 µg/mL (≈ 13.5 µM)

Compound: CNC(=O)NC(=O)NC(C(=O)NC1C(=O)N2C(C(=O)O)=C(COC(N)=O)CSC12)c1ccccc1 (stereo not drawn)
MIC [1]: 21.5 µg/mL (≈ 42.4 µM) | MIC [2]: 51.3 µg/mL (≈ 101 µM) | MIC [3]: 35 µg/mL (≈ 69.1 µM) | MIC [4]: 65 µg/mL (≈ 128 µM) | MIC [5]: 30 µg/mL (≈ 59.2 µM) | MIC [6]: 22.8 µg/mL (≈ 45 µM) | MIC [7]: > 200 µg/mL

Compound: CNC(=O)N(C)C(=O)NC(C(=O)NC1C(=O)N2C(C(=O)O)=C(COC(N)=O)CSC12)c1ccccc1 (stereo not drawn)
MIC [1]: 7 µg/mL (≈ 13.4 µM) | MIC [2]: 17.8 µg/mL (≈ 34.2 µM) | MIC [3]: 7.8 µg/mL (≈ 15 µM) | MIC [4]: 19.5 µg/mL (≈ 37.5 µM) | MIC [5]: 8.5 µg/mL (≈ 16.3 µM) | MIC [6]: 18.3 µg/mL (≈ 35.2 µM) | MIC [7]: 67.5 µg/mL (≈ 130 µM)

pKa [8]: 4.98
Compound: CN(C(=O)C=Cc1ccccc1)C(=O)N[C@@H](C(=O)NC1C(=O)N2C(C(=O)O)=C(COC(N)=O)CSC12)c1ccccc1 (stereo partly drawn) [Example 8, 7-[D-α-(3-Cinnamoyl-3-methyl-1-ureido)-α-phenylacetamido]-3-carbamoyloxymethyl-3-cephem-4-carboxylic acid]

Compound: CNC(=O)NC(=O)NC(C(=O)NC1C(=O)N2C(C(=O)O)=C(COC(N)=O)CSC12)c1ccc(O)cc1 (stereo not drawn)
MIC [1]: 17.3 µg/mL (≈ 33.1 µM) | MIC [2]: 27.2 µg/mL (≈ 52.1 µM) | MIC [3]: 100 µg/mL (≈ 191 µM) | MIC [4]: 18.5 µg/mL (≈ 35.4 µM) | MIC [5]: 12.5 µg/mL (≈ 23.9 µM) | MIC [6]: 33.3 µg/mL (≈ 63.7 µM) | MIC [7]: > 200 µg/mL

Compound: NC(=O)OCC1=C(C(=O)O)N2C(=O)C(NC(=O)C(NC(=O)NC(=O)c3ccco3)c3ccc(O)cc3)C2SC1 (stereo not drawn)
MIC [1]: 12.5 µg/mL (≈ 22.3 µM) | MIC [2]: 17.2 µg/mL (≈ 30.7 µM) | MIC [3]: 16 µg/mL (≈ 28.6 µM) | MIC [4]: 17.2 µg/mL (≈ 30.7 µM) | MIC [5]: 16 µg/mL (≈ 28.6 µM) | MIC [6]: 10 µg/mL (≈ 17.9 µM) | MIC [7]: 120 µg/mL (≈ 214 µM)
